Numbers after ± are expanded uncertainties.
Assays:
[1] = 298.15 K; 101.33 kPa; Liquid; Vibrating tube method
[2] = excess molar enthalpy (molar enthalpy of mixing); xn = mol fraction of the nth substance listed; conditions: 298.15 K, 101.33 kPa, Liquid, Flow calorimetry

Compound `COC(C)(C)C` [2-methoxy-2-methylpropane] has a mass density [1] of 735.69 ± 0.4 kg/m3.
Compound `CCC(C)CC` [3-methylpentane] has a mass density [1] of 660.3 ± 0.41 kg/m3.
Work on `CCC(C)CC` [3-methylpentane] + COC(C)(C)C yielded an excess molar enthalpy ([2]; x2 = 0.0499) of 0.0137 ± 0.000382 kcal/mol, an excess molar enthalpy ([2]; x2 = 0.0999) of 0.0259 ± 0.000502 kcal/mol and an excess molar enthalpy ([2]; x2 = 0.1501) of 0.0382 ± 0.000621 kcal/mol. The excess molar enthalpy ([2]; x2 = 0.2) was 0.0482 ± 0.000717 kcal/mol, the excess molar enthalpy ([2]; x2 = 0.2495) was 0.0559 ± 0.000789 kcal/mol and the excess molar enthalpy ([2]; x2 = 0.3004) was 0.0629 ± 0.00086 kcal/mol. The excess molar enthalpy ([2]; x2 = 0.3502) was 0.0683 ± 0.000932 kcal/mol, the excess molar enthalpy ([2]; x2 = 0.3999) was 0.072 ± 0.000956 kcal/mol and the excess molar enthalpy ([2]; x2 = 0.4505) was 0.0745 ± 0.00098 kcal/mol. It also gave an excess molar enthalpy ([2]; x2 = 0.4997) of 0.0752 ± 0.001 kcal/mol, an excess molar enthalpy ([2]; x2 = 0.55) of 0.0741 ± 0.00098 kcal/mol and an excess molar enthalpy ([2]; x2 = 0.5996) of 0.0717 ± 0.000956 kcal/mol. For the same compound, the excess molar enthalpy ([2]; x2 = 0.6502) was 0.0684 ± 0.000932 kcal/mol, the excess molar enthalpy ([2]; x2 = 0.7003) was 0.063 ± 0.00086 kcal/mol and the excess molar enthalpy ([2]; x2 = 0.75) was 0.0561 ± 0.000813 kcal/mol. For the same compound, the excess molar enthalpy ([2]; x2 = 0.7999) was 0.0476 ± 0.000717 kcal/mol, the excess molar enthalpy ([2]; x2 = 0.8501) was 0.0377 ± 0.000621 kcal/mol and the excess molar enthalpy ([2]; x2 = 0.8999) was 0.0263 ± 0.000502 kcal/mol. The excess molar enthalpy ([2]; x2 = 0.95) was 0.0128 ± 0.000359 kcal/mol.
With `CCCCCCCCCC` [decane] the mass density [1] was 726.31 ± 0.42 kg/m3.
With `CCCCCCCCCCCC` [dodecane] the mass density [1] was 745.38 ± 0.42 kg/m3.
